By IC50 is commonly meant the concentration at which inhibition is half-maximal.

T1 sequence (O00763 129-2458 limits assumed): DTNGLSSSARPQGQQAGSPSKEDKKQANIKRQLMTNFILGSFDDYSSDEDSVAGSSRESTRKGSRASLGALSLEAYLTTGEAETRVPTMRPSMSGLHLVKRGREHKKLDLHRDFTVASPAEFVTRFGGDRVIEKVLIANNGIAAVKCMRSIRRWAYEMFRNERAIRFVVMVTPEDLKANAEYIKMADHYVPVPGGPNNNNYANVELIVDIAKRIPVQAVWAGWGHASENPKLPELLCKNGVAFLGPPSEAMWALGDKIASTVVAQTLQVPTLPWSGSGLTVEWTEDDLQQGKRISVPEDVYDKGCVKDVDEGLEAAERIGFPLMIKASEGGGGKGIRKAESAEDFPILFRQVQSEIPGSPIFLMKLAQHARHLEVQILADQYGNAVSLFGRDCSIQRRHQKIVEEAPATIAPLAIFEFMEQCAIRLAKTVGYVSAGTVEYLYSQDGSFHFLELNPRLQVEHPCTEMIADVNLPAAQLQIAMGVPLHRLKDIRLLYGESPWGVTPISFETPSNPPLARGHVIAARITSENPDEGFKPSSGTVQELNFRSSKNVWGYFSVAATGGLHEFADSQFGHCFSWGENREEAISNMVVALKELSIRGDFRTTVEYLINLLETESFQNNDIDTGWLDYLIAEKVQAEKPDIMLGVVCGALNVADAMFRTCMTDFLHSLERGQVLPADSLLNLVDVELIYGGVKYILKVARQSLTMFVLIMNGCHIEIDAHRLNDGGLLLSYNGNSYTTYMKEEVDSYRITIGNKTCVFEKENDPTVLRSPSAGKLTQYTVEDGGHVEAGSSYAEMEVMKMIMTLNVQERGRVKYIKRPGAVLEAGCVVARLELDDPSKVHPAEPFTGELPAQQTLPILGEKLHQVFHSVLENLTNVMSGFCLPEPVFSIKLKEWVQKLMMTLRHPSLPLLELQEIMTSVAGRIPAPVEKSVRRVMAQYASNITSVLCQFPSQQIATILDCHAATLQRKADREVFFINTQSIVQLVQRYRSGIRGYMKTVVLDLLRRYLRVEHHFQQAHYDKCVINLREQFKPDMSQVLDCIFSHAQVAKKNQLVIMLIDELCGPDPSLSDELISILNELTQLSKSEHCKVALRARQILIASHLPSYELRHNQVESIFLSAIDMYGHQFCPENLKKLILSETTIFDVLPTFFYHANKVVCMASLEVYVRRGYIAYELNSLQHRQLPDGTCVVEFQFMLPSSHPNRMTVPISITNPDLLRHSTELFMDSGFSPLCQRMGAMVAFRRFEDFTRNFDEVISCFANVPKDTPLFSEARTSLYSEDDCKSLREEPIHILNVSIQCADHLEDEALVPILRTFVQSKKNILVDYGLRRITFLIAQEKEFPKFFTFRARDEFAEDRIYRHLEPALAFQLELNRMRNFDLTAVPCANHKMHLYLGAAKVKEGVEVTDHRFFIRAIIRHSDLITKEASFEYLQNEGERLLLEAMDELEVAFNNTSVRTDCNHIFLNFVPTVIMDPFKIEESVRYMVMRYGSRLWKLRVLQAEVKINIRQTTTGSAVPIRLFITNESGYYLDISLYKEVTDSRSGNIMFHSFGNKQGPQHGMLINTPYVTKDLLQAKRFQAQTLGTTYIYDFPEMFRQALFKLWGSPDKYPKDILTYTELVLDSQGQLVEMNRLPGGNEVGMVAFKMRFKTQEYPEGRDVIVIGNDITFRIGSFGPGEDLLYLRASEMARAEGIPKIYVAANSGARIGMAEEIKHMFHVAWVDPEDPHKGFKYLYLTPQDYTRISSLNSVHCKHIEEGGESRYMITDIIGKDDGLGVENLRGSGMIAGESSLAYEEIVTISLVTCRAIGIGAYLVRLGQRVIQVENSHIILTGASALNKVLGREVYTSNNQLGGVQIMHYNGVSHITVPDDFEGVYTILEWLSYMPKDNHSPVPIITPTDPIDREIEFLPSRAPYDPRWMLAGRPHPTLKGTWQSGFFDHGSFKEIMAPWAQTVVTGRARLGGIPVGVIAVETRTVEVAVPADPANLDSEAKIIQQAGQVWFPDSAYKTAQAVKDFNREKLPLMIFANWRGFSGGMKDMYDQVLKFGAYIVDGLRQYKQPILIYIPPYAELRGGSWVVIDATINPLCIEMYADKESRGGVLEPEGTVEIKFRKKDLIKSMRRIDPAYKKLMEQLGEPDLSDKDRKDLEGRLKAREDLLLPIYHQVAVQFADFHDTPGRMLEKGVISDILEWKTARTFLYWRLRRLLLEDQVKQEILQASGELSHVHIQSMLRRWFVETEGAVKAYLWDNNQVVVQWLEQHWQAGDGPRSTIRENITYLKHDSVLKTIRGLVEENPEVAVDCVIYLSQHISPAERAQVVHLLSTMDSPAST

The test addresses T1, human ACC2 (Homo sapiens, UniProt O00763).
T1 construct: made in house; host or cells: insect cells (baculoviral expression system)
The test can be described thus: ACC2 assay, spectrophotometric 384 well assay (NADH-linked, coupled lactate dehydrogenase/pyruvate kinase). The format is biochemical. To be noted: ACC2 assay, hACC2 construct lacking 128 N-terminal amino acids, 25° C., 340 nm; read-out: IC50. The method in brief: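 Human ACC2 lacking N-terminal 128 aa, baculovirus/insect-cell expressed, anion-exchange purified; 100 mM Tris pH 7.5, 10 mM citrate, 25 mM KHCO3, 1% DMSO. Started with 200 μM NADH and acetyl-CoA plus 500 μM ATP; PK/LDH-coupled A340 decrease read 15 min at 25° C. IC50 by nonlinear fit of low-control-subtracted slopes.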
On to `CC(=O)N[C@@H](C)c1ccc(C2CCN(c3ncc(C(=O)N(C)CC4OCCO4)cn3)CC2)cc1` [Example 18.10], for which the IC50 was found to be 11500 nM.

For `CCOc1ccc(N2CCC(c3ccc([C@H](C)NC(=O)N(C)C(C)C)cc3)CC2)cc1` [Example 14.53], the IC50 came out at 4900 nM.

Turning to `CC(=O)N[C@@H](C)c1ccc(C2CCN(c3ccnc(NCCC(C)C)n3)CC2)cc1` [Example 11.71], the IC50 was found to be 2300 nM.

Regarding `CCCCOc1ccc(N2CCC(c3ccc([C@H](C)NC(C)=O)cc3)CC2)cc1F` [Example 8.42], the half-maximal inhibitory concentration (IC50) was determined as 90 nM.

On to `CCCOc1ccc(N2CCC(c3ccc([C@H](C)NC(=O)C(F)(F)F)cc3)CC2)c(OC)c1` [Example 40.1, (S)-2,2,2-Trifluoro-N-{1-[4-(1-(2-methoxy-4-propoxyphenyl)piperidin-4-yl)phenyl]-ethyl}acetamide], for which the IC50 came to 290 nM.

On to `CCN1CCCC1CNC(=O)c1cnc(N2CCC(c3ccc([C@H](C)NC(C)=O)cc3)CC2)nc1` (some centres unmarked) [Example 18.44], for which the IC50 was determined as 18300 nM.

Consider `CC(C)Oc1cc(N2CCC(c3ccc([C@H](C)NC(=O)C4CC4)cc3)CC2)ncn1` [Example 20.1, (S)-Cyclopropanecarboxylic acid (1-{4-[1-(6-isopropoxy-pyrimidin-4-yl)-piperidin-4-yl]-phenyl}-ethyl)-amide], for which the IC50 stood at 600 nM.

For `CC(=O)N[C@@H](C)c1ccc(C2CCN(c3ncc(C(=O)NCC4CCNCC4)cn3)CC2)cc1` [Example 18.60], the IC50 came to 15500 nM.

`CC(=O)N[C@@H](C)c1ccc(C2CCN(c3ncc(-c4ccc(N(C)C)nc4)cn3)CC2)cc1` [Example 10.81]: the IC50 was determined as 10400 nM.

Take `CC(=O)N[C@@H](C)c1ccc(C2CCN(c3ncc(-c4ccccn4)cn3)CC2)cc1` [Example 10.203]: the IC50 is 160 nM.

Turning to `CC(=O)N[C@@H](C)c1ccc(C2CCN(c3cc(N4CCCC4)ncn3)CC2)cc1` [Example 11.113], the IC50 turned out to be 200 nM.

For `CCOc1cccc(-c2nccc(N3CCC(c4ccc([C@H](C)NC(C)=O)cc4)CC3)n2)c1` [Example 22.4], the IC50 came out at 390 nM.

Regarding `CC(=O)N[C@@H](C)c1ccc(C2CCN(c3cc(N(C)C4CC4)ncn3)CC2)cc1` [Example 11.87], the IC50 came out at 790 nM.

Turning to `CC(=O)N[C@@H](C)c1ccc(C2CCN(c3ncc(-c4ccc(F)cc4C)cn3)CC2)cc1` [Example 10.60], the IC50 was determined as 390 nM.

Consider `CC(=O)N[C@@H](C)c1ccc(C2CCN(c3ccc4nc(C)sc4c3)CC2)cc1` [Example 1.66], for which the IC50 is 420 nM.

For `CCOc1ccc(N2CCC(c3ccc([C@H](C)NC(=O)CC(=O)NC)cc3)CC2)cc1` [Example 33.2], the IC50 is 8900 nM.

Regarding `CCC(C)Oc1ccc(N2CCC(c3ccc([C@H](C)NC(=O)OC)cc3)CC2)cc1` (some centres unmarked) [Example 1.130], the IC50 turned out to be 80 nM.

`CC(=O)N[C@@H](C)c1ccc(C2CCN(c3nc4ccccc4n3C)CC2)cc1` [Example 4.12]: the IC50 turned out to be 11600 nM.

As for `CC#CCOc1cccc(N2CCC(c3ccc([C@H](C)NC(C)=O)cc3)CC2)c1` [Example 9.8], the IC50 came out at 200 nM.

Take `COC[C@H]1CCCN1C(=O)c1cnc(N2CCC(c3ccc([C@H](C)NC(C)=O)cc3)CC2)nc1` [Example 18.27]: the IC50 was found to be 10400 nM.

`CC(=O)N[C@@H](C)c1ccc(C2CCN(c3cccc(OCCC(C)C)c3)CC2)cc1` [Example 9.1, (S)—N-[1-(4-{1-[3-(Isopentyloxy)-phenyl]-piperidin-4-yl}-phenyl)-ethyl]-acetamide]: the IC50 is 370 nM.

On to `CCOc1ccc(N2CCC(c3ccc([C@H](C)NC(=O)C4CC4(F)F)cc3)CC2)cc1` (some centres unmarked) [Example 6.23], for which the IC50 came to 420 nM.

Turning to `COc1ccc(N2CCC(c3ccc([C@H](C)NC(C)=O)cc3)CC2)c(C#N)c1` [Example 1.34], the IC50 is 260 nM.

As for `CC(=O)N[C@@H](C)c1ccc(C2CCN(c3ccc(F)c(C#N)c3)CC2)cc1` [Example 1.159], the IC50 worked out at 2700 nM.

As for `CCCOc1cnc(N2CCC(c3ccc([C@H](C)NC(=O)N(C)C)cc3)CC2)nc1` [Example 4.306], the IC50 turned out to be 120 nM.

On to `CCC(=O)N[C@@H](C)c1ccc(C2CCN(c3ncc(C4CC4)cn3)CC2)cc1` [Example 4.54], for which the IC50 was determined as 1800 nM.

As to `CCc1nc(N2CCC(c3ccc([C@H](C)NC(C)=O)cc3)CC2)no1` [Example 26.2], the IC50 was 4100 nM.

As for `CCNC(=O)c1cnc(N2CCC(c3ccc([C@H](C)NC(C)=O)cc3)CC2)nc1` [Example 18.90], the IC50 came to 1200 nM.

Regarding `CC(=O)N[C@@H](C)c1ccc(C2CCN(c3cc(Cl)nc(N4CCCC4)n3)CC2)cc1` [Example 5.200, (S)—N-(1-{4-[1-(6-Chloro-2-pyrrolidin-1-yl-pyrimidin-4-yl)-piperidin-4-yl]-phenyl}-ethyl)-acetamide], the IC50 amounted to 7500 nM.

On to `CCOc1ccc(N2CCC(c3ccc([C@H](C)NC(=O)c4cncs4)cc3)CC2)cc1` [Example 6.11], for which the IC50 came to 340 nM.

As for `CC(=O)N[C@@H](C)c1ccc(C2CCN(c3ccc(OC4CCC4)c(F)c3)CC2)cc1` [Example 8.13], the IC50 turned out to be 110 nM.

`C[C@H](NC(=O)N(C)C)c1ccc(C2CCN(c3ccnc(Oc4cncnc4)c3)CC2)cc1` [Example 1.107]: the IC50 was determined as 520 nM.

In the case of `CCOc1ccnc(N2CCC(c3ccc([C@H](C)NC(C)=O)cc3)CC2)c1` [Example 5.47], the half-maximal inhibitory concentration (IC50) is 800 nM.

Regarding `CC(=O)N[C@@H](C)c1ccc(C2CCN(c3cc(Oc4ccc(F)cc4)ncn3)CC2)cc1` [Example 11.5], the IC50 came to 200 nM.

Regarding `CCCOc1ccc(N2CCC(c3ccc([C@H](C)NC(C)=O)cc3)CC2)c(OC)c1` [Example 1.31], the IC50 came to 180 nM.

On to `COC1CCN(c2cc(N3CCC(c4ccc([C@H](C)NC(C)=O)cc4)CC3)ncn2)CC1` [Example 11.81], for which the IC50 turned out to be 2300 nM.

For the compound `C[C@H](NC(=O)C1CC1)c1ccc(C2CCN(c3ccc(OC4CCCC4)cc3)CC2)cc1` [Example 1.117], the IC50 stood at 60 nM.

For `CCOc1ccc(N2CCC(c3ccc([C@H](C)NS(C)(=O)=O)cc3)CC2)cc1` [Example 17.1, (S)—N-(1-{4-[1-(4-Ethoxy-phenyl)-piperidin-4-yl]-phenyl}-ethyl)-methanesulfonamide], the IC50 was 2900 nM.

`CC(=O)N[C@@H](C)c1ccc(C2CCN(c3ncc(-c4coc5ccccc45)cn3)CC2)cc1` [Example 10.91]: the IC50 came out at 170 nM.

Take `CC(=O)N[C@@H](C)c1ccc(C2CCN(c3ccc(-c4ccc(C)cc4)cn3)CC2)cc1` [Example 10.314]: the IC50 is 280 nM.

In the case of `CC(=O)N[C@@H](C)c1ccc(C2CCN(c3cc(NC4CCOCC4)ncn3)CC2)cc1` [Example 11.74], the half-inhibitory concentration (IC50) worked out at 8300 nM.

On to `COc1cc(OC2CCC2)ccc1N1CCC(c2ccc([C@H](C)NC(C)=O)cc2)CC1` [Example 1.37], for which the IC50 came to 110 nM.

`CC(=O)N[C@@H](C)c1ccc(C2CCN(c3ccc(C(C)C)cc3)CC2)cc1` [Example 1.52]: the IC50 stood at 110 nM.

Turning to `CCCOc1ccc(N2CCC(c3ccc([C@H](C)NC(=O)N(C)C)cc3)CC2)c(C#N)c1` [Example 1.123], the IC50 was 70 nM.

Take `CC(=O)N[C@@H](C)c1ccc(C2CCN(c3ncc(C(=O)NC4(C#N)CC4)cn3)CC2)cc1` [Example 18.70]: the IC50 turned out to be 17400 nM.

With `CC(=O)N[C@@H](C)c1ccc(C2CCN(c3cccc(OC4CCC4)c3)CC2)cc1` [Example 1.88], the IC50 was found to be 540 nM.

With `CC(=O)N[C@@H](C)c1ccc(C2CCN(c3ccc(OCC(C)C)c(C#N)c3)CC2)cc1` [Example 8.27], the IC50 turned out to be 2600 nM.

With `C=CCC(=O)N[C@@H](C)c1ccc(C2CCN(c3ccc(OCC)cc3)CC2)cc1` [Example 6.16], the half-maximal inhibitory concentration (IC50) is 570 nM.

`CC(=O)N[C@@H](C)c1ccc(C2CCN(c3ccc4[nH]cc(C)c4c3)CC2)cc1` [Example 1.75]: the IC50 was found to be 2200 nM.

With `CCOc1cnc(N2CCC(c3ccc([C@H](C)NC(C)=O)cc3)CC2)nc1` [Example 4.50], the IC50 came out at 460 nM.

Consider `CC(=O)N[C@@H](C)c1ccc(C2CCN(c3ccnc(NCC(C)C)n3)CC2)cc1` [Example 11.66], for which the IC50 amounted to 2200 nM.

For `CC(=O)N[C@@H](C)c1ccc(C2CCN(c3ncc(C(=O)Nc4cccc(C)c4)cn3)CC2)cc1` [Example 18.8], the IC50 came to 260 nM.

As to `CC(=O)N[C@@H](C)c1ccc(C2CCN(c3ncc4nc(-c5cccs5)oc4n3)CC2)cc1` [Example 5.7], the concentration for half-maximal inhibition (IC50) was found to be 50 nM.

`C[C@H](NC(=O)C1CC1)c1ccc(C2CCN(c3ncc(C4CC4)cn3)CC2)cc1` [Example 4.303]: the IC50 is 15600 nM.

As to `CC(=O)N[C@@H](C)c1ccc(C2CCN(c3ccnc(-c4ccc5c(c4)OCO5)n3)CC2)cc1` [Example 22.1, (S)—N-(1-{4-[1-(2-Benzo[1,3]dioxol-5-yl-pyrimidin-4-yl)-piperidin-4-yl]-phenyl}-ethyl)-acetamide], the IC50 worked out at 1100 nM.

As to `CC(=O)N[C@@H](C)c1ccc(C2CCN(c3ccc(OCC(C)C)c(F)c3)CC2)cc1` [Example 8.28], the IC50 came out at 150 nM.

For the compound `CC(=O)N[C@@H](C)c1ccc(C2CCN(c3ccnc(OCc4ccccc4)c3)CC2)cc1` [Example 15.3], the IC50 is 200 nM.

For the compound `CC(=O)N[C@@H](C)c1ccc(C2CCN(c3ncc(C(=O)NCCC4CCCN4C)cn3)CC2)cc1` (some centres unmarked) [Example 18.56], the IC50 stood at 14900 nM.

As to `CCc1cnc(N2CCC(c3ccc([C@H](C)NC(C)=O)cc3)CC2)nc1` [Example 4.42], the half-inhibitory concentration (IC50) was determined as 530 nM.

Consider `CC(=O)N[C@@H](C)c1ccc(C2CCN(c3ccc(OC4CC4)cc3C)CC2)cc1` [Example 1.92], for which the IC50 worked out at 120 nM.

On to `COc1ccccc1CNC(=O)c1cnc(N2CCC(c3ccc([C@H](C)NC(C)=O)cc3)CC2)nc1` [Example 18.14], for which the IC50 amounted to 10200 nM.

As to `CCCOc1ccc(N2CCC(c3ccc([C@H](C)NC(=O)N(C)C)cc3)CC2)cc1` [Example 1.8], the IC50 turned out to be 120 nM.

(Values after patent US9006450B2 (Boehringer Ingelheim International GmbH, priority 2010, dated 2015).)
